Results published in patent US8535897B2, “Assays for non-apoptotic cell death and uses thereof” (The Trustees of Columbia University in the City of New York, priority 2006, dated 2013).

How the values were obtained:
Assay type in all cases: cell-based, human
[1] = system: BJ-TERT/LT/ST/RASV12 cells; assay: Nuclear morphology, fluorescence microscopy (Hoechst 33342)
Protocol: DNA was stained used Hoechst 33342.
To characterize the type of cell death induced by erastin, the effect of erastin was tested alongside camptothecin and staurosporine, which induce apoptotic cell death^39. Apoptosis is characterized by alterations in nuclear morphology, including pyknosis, karyorhexis and margination of chromatin^93. Nuclear morphology of camptothecin-treated and erastin-treated BJ-TERT/LT/ST/RAS^V12 cells was monitored using fluorescence microscopy. […] Apoptosis-inducing compounds (staurosporine and/or camptothecin) were tested alongside erastin in all of these assays to confirm the functionality of the assay. […] Therefore, in certain aspects the invention provides a genotype-selective anti-tumor agent which induces cell death via a non-apoptotic mechanism of oxidative cell death.

[2] = system: PARP1; assay: PARP1 cleavage, western blot; settings: BJ-TERT/LT/ST/RAS^V12; staurosporine 1 μM 6 h, camptothecin 1 μM 18 h, erastin 20 μg/mL
Protocol: BJ-TERT/LT/ST/RAS^V12 tumor cells were seeded in six-well dishes, incubated overnight at 37° C. with 5% CO2 and were treated with nothing (NT), staurosporine (ST, 1 μM) for 6 h, camptothecin (C, 1 μM) for 18 h, or erastin (20 μg/mL) for the indicated time, lysed and analyzed by western blot with an anti-PARP1 antibody. A relatively high concentration of erastin was used to ensure loss of PARP cleavage was not due to a concentration-dependent effect.
For western blots, medium was aspirated, and each dish was washed twice with 10 mL of ice-cold PBS. Cells were lysed with 200 μL of buffer (50 mM HEPES, 40 mM NaCl, 2 mM EDTA, 0.5% Triton-X, 1.5 mM sodium orthovanadate, 50 mM NaF, 10 mM Na Pyrophosphate, 10 mM Na B-glycerophosphate and protease inhibitor tablet, pH 7.4). […]

[3] = system: BJ-TERT/LT/ST/RASV12 cells; assay: Annexin V staining; settings: erastin 9 μM; camptothecin 1 μM
Protocol: The percentage of cells in the indicated M1 region were 6%, 6%, and 38% in untreated, erastin-treated (9 μM), and camptothecin-treated (1 μM), respectively.

[4] = system: BJELR cells; assay: Sensitivity after upregulation of VDACs by nucleofection
Description: Quantitative western blot showing the ratio of VDACs (top band, green) to eif4E (bottom band, red) (e). […] Green, untransfected BJELR cells; blue, mock nucleofected BJELR cells; red, VDAC2/3-nucleofected BJELR cells (f).
In certain aspects, the invention provides that erastin acts by a gain-of-function mechanism and that cells with more VDAC proteins are more sensitive to erastin. A gain-of-function mechanism operates in cells which have increased levels of topoisomerase I and are thus more sensitive to camptothecin^149. […] In other embodiments, cell lines can be stably transfected with vectors expressing VDAC1, 2, and/or 3. Thus, increased VDAC expression leads to erastin sensitivity which is consistent with a gain of function mechanism. Furthermore, a knockdown of VDACs causes erastin resistance.

[5] = system: cytochrome c; assay: Cytochrome c release from mitochondria; settings: BJ-TERT/LT/ST/RAS^V12; staurosporine 1 μM or erastin 20 μg/mL for 6 h
Protocol: BJ-TERT/LT/ST/RAS^V12 cells were seeded in polystyrene 100×20 mm dishes in 10 ml media. After overnight incubation at 37° C. with 5% CO2, the cells were treated with nothing (NT), staurosporine (ST, 1 μM) or erastin (20 μg/mL) for 6 h, washed with 10 mL ice-cold PBS and lysed by passage through a 25-gauge needle (five strokes). Cell lysates were centrifuged at 1850 rpm for 5 min at 4° C. to remove the nuclear fraction. Mitochondria were removed from the soluble cytosolic fraction by pelleting at 10,000 rpm. Supernatant and mitochondrial pellets were solubilized in SDS-PAGE loading buffer and analyzed by western blot using anti-cytochrome c and pan-VDAC antibodies and IR-dye-linked secondary antibodies. […] Fluorescence was detected on a LI-COR Odyssey infrared scanner.
(a) BJ-TERT/LT/ST/RAS^V12 cells were treated with 9 μM erastin A1 for the indicated length of time, and the number of viable cells determined. […] Red fluorescence resulting from reduction of alamar blue was detected on a Victor3 platereader. […] (e) The number of viable cells was quantified under each condition using a hemacytometer. […] BJ-TERT/LT/ST/RAS^V12 (shown in histogram plots, and in line graph as dark diamonds) or BJ-TERT cells (shown in line graph only, light circles) were treated with 4.6-μM erastin A1 and the level of intracellular oxidative species determined. […]

For `CC[C@@]1(O)C(=O)OCc2c1cc1n(c2=O)Cc2cc3ccccc3nc2-1` [camptothecin], the “fragmented nuclei, of total nuclei” value ([1]; Hoechst 33342) was 10%-20%, the nuclear morphology ([1]; fluorescence microscopy) was “karyorhexis and margination of chromatin were visible” and the PARP1 cleavage [2] was “degraded”. The “percentage of cells in the M1 region (Annexin V staining)” value [3] was 38%.

For `COc1cc([C@@H]2c3cc4c(cc3[C@H](O)[C@H]3COC(=O)[C@H]23)OCO4)cc(OC)c1OC` [podophyllotoxin], the “change in sensitivity/potency after upregulation of VDAC proteins by nucleofection” value [4] was “did not change the potency”.

In the case of `CN[C@@H]1C[C@H]2O[C@@](C)([C@@H]1OC)n1c3ccccc3c3c4c(c5c6ccccc6n2c5c31)C(=O)NC4` [staurosporine], the “cytochrome c release from mitochondria” value [5] is reported as “released from mitochondria”.
